Source: patent US10766926B2, “Composition for autophagy inhibiting in cell, and pharmaceutical composition for preventing or treating tumor disease, or inhibiting anti-cancer agents resistance containing the same” (L-BASE CO., LTD, priority 2018, dated 2020)

What was measured:
[1] = system: PC9 cell line and PC9-ER cell line; test: MTT assay, resistance of PC9 and PC9-ER cell lines to anticancer agents; type: cell-based; conditions: anticancer agent 1/10-fold serial dilution, 24 hours, FIGS. 3A and 3B
Protocol: The cancer cell line (PC9) used in the present invention was cultured in a minimum essential medium in a conditioned incubator (37° C.) supplemented with 10% fetal bovine serum and antibiotics. The cancer cell line (PC9-ER) was constructed to have resistance by exposing to erlotinib as an anticancer agent for a long period of time.
Additionally, the MTT assay was performed so as to confirm the resistance of the PC9 cell line and the PC9-ER cell line to anticancer agents.
(§1) Specifically, an equal number of the PC9 cell line and the PC9-ER cell line were cultured in a 96-well cell culture plate, treated with an anticancer agent subjected to a 1/10-fold serial dilution for 24 hours, and confirmed using MTT. As an experiment to utilize the principle that NADH present in the mitochondria of a living cell reacts with MTT to form formazan, formazan was dissolved in DMSO and its absorbance was measured at 570 nm and thereby the growth activity of the cells was confirmed.

PC9-ER cell line [2] = test: western blot of autophagy mechanism proteins in PC9-ER cell line treated with polypeptide; type: cell-based; conditions: FIG. 4
Protocol: An attempt was made to confirm the inhibitory effects of SPTPKT (polypeptide 1) and QTATAKA (polypeptide 2) against autophagy, based on the results that the expression of ATG5 and ATG5-ATG12 proteins which are known to be involved in autophagy in the cancer cell line (PC9-ER).
Specifically, the PC9-ER cell line was treated with each of the polypeptide 1 and the polypeptide 2 and the expression levels of Beclin1, p-Belclin1, ATG5-ATG12, LC3 I, and LC3 II (i.e., proteins associated with autophagy mechanism) were compared by western blot method, and the results are shown in FIG. 4.

PC9-ER cell line [3] = test: LC3 immunofluorescence staining in PC9-ER cell line; type: cell-based; conditions: 24 hours after treatment, confocal microscopy, FIG. 5
Protocol: Additionally, the cells were subjected to immunofluorescence staining after treating the PC9-ER cell line with the polypeptide 2.
(§2) Specifically, 24 hours after treating the PC9-ER cell line with the polypeptide 2, the cells were fixed at room temperature using 4% formaldehyde. Then, the cells were reacted at room temperature for 30 minutes so as to prevent inaccurate binding to antibodies using PBS containing 0.1% BSA, and allowed to react with LC3 antibodies (cell signaling) at 4° C. for 24 hours. After removing the antibodies, the cells were washed with PBS and allowed to react with secondary antibodies (Thermo Fisher) labeled with Alexa 488 fluorescence at room temperature for 1.5 hours. After the reaction, the cells from which antibodies were removed were washed with PBS and stained with DAPI (Thermo Fisher) for 1 minute.

PC9-ER cell line [4] = test: MTT assay, resistance of PC9-ER cell line to anticancer agent after polypeptide treatment; type: cell-based; conditions: conclusion of Example 2
Protocol: Additionally, the PC9-ER cell line was treated with the polypeptide 1, polypeptide 2, and GNTITIKT (polypeptide 3), respectively, and the MTT assay was performed so as to confirm the resistance of the PC9-ER cell line to anticancer agents.
as §1, with “Specifically,” for “Specifically, an equal number of the PC9 cell line and”, “was plated on” for “were cultured in”, “plate and” for “plate,”, “treated with each of the polypeptides (1 to 3) for 24 hours. Then, the cells were treated for” for “treated”, “hours” for “hours,”

PC9-ER cell line [5] = test: inhibitory effect against tumor formation, PC9-ER tumor in nude mice; type: in vivo, athymic nude mice (BALB/C nude); conditions: PC9-ER tumor in nude mice, 0, 50, 100, 200 μg/mouse, 5 injections through caudal vein, measured on day 41; FIGS. 8A-8C
Protocol: (§3) Specifically, athymic nude mice (BALB/C nude, 5 to 6-week old females) were subcutaneously injected on the side with the PC9-ER cell line (2×10^6 cells/mouse) to induce tumor. When the tumor volume reached about 150 mm^3, the polypeptide 2 was injected a total of 5 times through the caudal vein and the changes in the tumor size were examined. The tumor volume was directly measured using a caliper and calculated by the following equation (length×width×height×0.5). In order to confirm the inhibitory effect of the polypeptide 2 against tumor formation, the peptide (at concentrations of 0 μg/mouse, 50 μg/mouse, 100 μg/mouse, and 200 μg/mouse) was injected 5 times through the caudal vein from day 25 at 3 day intervals. On the 41st day, the tumors were separated and the sizes of the tumor volumes were measured, and western blot was performed using each labeled antibody.

PC9-ER cell line [6] = test: western blot of tumor tissue from PC9-ER tumor-bearing nude mice; type: in vivo, athymic nude mice (BALB/C nude); conditions: 50-200 μg/mouse, FIG. 9
Protocol: as §3

H1975 cells = test: western blot of autophagy controlling proteins in H1975 cells; type: cell-based; conditions: FIG. 10
H1975 cell line = test: MTT assay, resistance of H1975 cell line to osimertinib after polypeptide treatment; type: cell-based; conditions: for anticancer activity through the inhibition of autophagy: conclusion of Example 5
Protocol: Additionally, after the treatment with the polypeptide 1, polypeptide 2, and polypeptide 3, respectively, the MTT assay was performed so as to confirm the resistance to osimertinib (Tagrisso), an anticancer agent.
Specifically, an equal number of cells of the H1975 cell line were plated into a 96-well cell culture plate and treated with the polypeptides (1 to 3) for 24 hours. Then, the cells were treated with osimertinib (Tagrisso), an anticancer agent, which was subjected to a 1/10-fold serial dilution, for 24 hours and were confirmed using MTT. As an experiment to utilize the principle that NADH present in the mitochondria of a living cell reacts with MTT to form formazan, formazan was dissolved in DMSO and its absorbance was measured at 570 nm and thereby the growth activity of the cells was confirmed.

MCF7^R cell line [7] = test: western blot of autophagy controlling proteins in MCF7^R cell line; type: cell-based; conditions: FIG. 12
Protocol: MCF7^R cancer cell line having resistance to anticancer agents was constructed to have resistance by exposing to celastrol for a long period of time
To examine the effects of the polypeptide 1 and the polypeptide 2 on the proteins of autophagy controlling mechanism, western blot was performed using each labeled antibody in the MCF7^R cell line.

MCF7^R cell line [8] = test: LC3 immunofluorescence staining in MCF7^R cell line; type: cell-based; conditions: 24 hours treatment, confocal microscopy, FIG. 13
Protocol: Additionally, after the treatment with the polypeptide 2 in the MCF7^R cell line, the immunofluorescence staining was performed.
as §2, with “Specifically,” for “Specifically, 24 hours”, “polypeptide 2 on the MCF7^R” for “PC9-ER”, “for 24 hours,” for “with the polypeptide 2,”

Compound | resistance of PC9-ER cell line to the anticancer agent compared to PC9 cell line [1] | expression levels of Beclin1, p-Beclin1, ATG5-ATG12, LC3 I and LC3 II proteins (PC9-ER cell line [2]) | inhibitory effect against autophagy in the cancer cell line having resistance to anticancer agents (PC9-ER cell line [4]) | expression of p-AMPK, p-Beclin1, ATG5, ATG5-ATG12, LC3 I and LC3 II (H1975 cells) | anticancer activity through the inhibition of autophagy (H1975 cell line) | expression level of p62 protein (MCF7^R cell line [7]) | expression levels of p-Beclin1, ATG5, ATG5-ATG12, LC3 I and LC3 II proteins (MCF7^R cell line [7]) | further results
CC(=O)O[C@H]1C(=O)[C@@]2(C)[C@H]([C@H](OC(=O)c3ccccc3)[C@]3(O)C[C@H](OC(=O)[C@H](O)[C@@H](NC(=O)c4ccccc4)c4ccccc4)C(C)=C1C3(C)C)[C@]1(OC(C)=O)CO[C@@H]1C[C@@H]2O [taxol] | higher resistance |  |  |  |  |  |  | 
QTATAKA [polypeptide 2] |  | lowered | inhibitory effect against autophagy | lowered | anticancer activity | increased | reduced | expression level of LC3 puncta (PC9-ER cell line [3]): lowered; size of tumors (tumor volume) (PC9-ER cell line [5]): significantly reduced; expression of p-AMPK, Beclin1 and p-Beclin1 proteins in tumor tissue (PC9-ER cell line [6]): decreased in a concentration-dependent manner; expression of p-mTOR and p62 proteins in tumor tissue (PC9-ER cell line [6]): increased in a concentration-dependent manner; resistance to osimertinib (Tagrisso), polypeptide at different concentrations (H1975 cell line; MTT): reduced in a concentration-dependent manner; expression level of LC3 puncta (MCF7^R cell line [8]): lowered
SPTPKT [polypeptide 1] |  | lowered | inhibitory effect against autophagy | lowered | anticancer activity | increased | reduced | 
GNTITIKT [polypeptide 3] |  |  | inhibitory effect against autophagy |  | anticancer activity |  |  | 
CC(=O)O[C@@]12CO[C@@H]1C[C@H](O)[C@@]1(C)C(=O)[C@H](O)C3=C(C)[C@@H](OC(=O)[C@H](O)[C@@H](NC(=O)OC(C)(C)C)c4ccccc4)C[C@@](O)([C@@H](OC(=O)c4ccccc4)[C@H]21)C3(C)C [docetaxel] | higher resistance |  |  |  |  |  |  | 
